Data: patent publication US8748598B2, “Analogs of 3-O-acetyl-11-keto-beta-boswellic acid” (Laila Nutraceuticals, priority 2004, dated 2014)
Converted amounts (≈) assume the structure as drawn. Read-outs that look alike come from different tables or passages of the source.

Columns and labels:
PC3M = test: Cytotoxicity MTT assay, PC3M; type: cell-based, human; parameters: minimum inhibitory concentration (MIC) PC3M: unit not given here; settings: for minimum inhibitory concentration (MIC) PC3M: MTT assay
Jurkat = type: cell-based, human; parameters: minimum inhibitory concentration (MIC) Jurkat: unit not given here; settings: for minimum inhibitory concentration (MIC) Jurkat: MTT assay
Protocol: (§1) MTT [3-(4,5-dimethylthiazol-2-yl)-2,5-diphenyltetrazolium bromide] incorporation based cell proliferation assay was performed as described previously (Reference). The cytotoxic efficacy of some analogs was evaluated in different cell lines by MTT cell proliferation assay kit (Roche Applied Sciences, Germany). The assay was carried out according to the instruction provided by the vendor. Briefly, in brief, equal numbers of cells was plated in 96-well flat-bottomed plates in 100 μl of medium and were exposed to different analogs selected from 1 to 63 at various concentrations up to 10 μg/ml for a period of three days. Vehicle control culture wells received only a maximum of 0.5% DMSO. Thereafter, 0.5 mg/ml of MTT reagent was added to each well and the microplate was incubated further for 4 h at 37° C. in presence of 5% CO2. Finally, the cells were solubilized by adding solubilizing solution and allowed to incubate at 37° C. overnight. After complete solubilization of the formazan crystals the absorbance was read at 540 nm in a microplate reader (BioRad, USA). The results (mean OD±SD) obtained from quadruplicate wells were used in calculation to determine the inhibition of cell proliferation (50% of inhibitory concentration, IC50) of the test compounds.
(§2) The cytotoxic properties of some analogs were evaluated by MTT incorporation assay. The methodology of the assay procedure was the same as mentioned in example 41.

HePG2 = test: Cytotoxicity MTT assay, HePG2; type: cell-based, human; parameters: unit not given here
Protocol: as §1, §2

MCF-7 = test: MTT cell proliferation assay, MCF-7; type: cell-based, human; settings: for Inhibition of cell proliferation MCF-7 (IC50): three days
Protocol: as §1, §2

MDA-MB-231 = test: MTT cell proliferation assay, MDA-MB-231; type: cell-based, human; settings: for Inhibition of cell proliferation MDA-MB-231 (IC50): three days
Protocol: as §1, §2

A549 = test: MTT cell proliferation assay, A549; type: cell-based, human; settings: Table 2; for Inhibition of cell proliferation A549 (IC50): three days
Protocol: as §1

potato 5-lipoxygenase = test: 5-Lipoxygenase enzyme inhibitory activity; type: biochemical
Protocol: 5-Lipoxygenase enzyme inhibitory activity was measured using the method of Schewe et al. (Adv Enzymol, Vol 58, 191-272, 1986), modified by Reddanna et. al., (Methods of Enzymology, Vol 187, 268-277, 1990). The assay mixture contained 80 μM linoleic acid and sufficient amount of potato 5-lipoxygenase in 50 mM phosphate buffer (pH 6.3). The reaction was initiated by the addition of enzyme buffer mix to linoleic acid and the enzyme activity was monitored as the increase in absorbance at 234 nm. The reaction was monitored for 120 sec and the inhibitory potential of the test substances (29, 31, 33, 34, 35, 36, 39, 40, 43, 44, 46, 47, 48, 49, 50, 54, 57, 59, 62 & 63) was measured by incubating various concentrations of test substances two minutes before the addition of linoleic acid. All assays were performed three times. Percentage inhibition was calculated by comparing the slope of the curve obtained for test substances with that of the control.

B16 = test: MTT cell proliferation assay, B16; type: cell-based, mouse; settings: Table 2; for Inhibition of cell proliferation B16 (IC50): three days
Protocol: as §1

A375 = test: MTT cell proliferation assay, A375; type: cell-based, human; settings: Table 2; three days
Protocol: as §1

[1] = tested on: B16 F0 melanoma xenograft; test: B16 F0 melanoma xenograft model; type: in vivo, C57B6J mice; settings: 75 mg/kg daily intra-peritoneal, twelve days
Protocol: In vivo efficacy of LI-51255 against melanoma growth was evaluated in B16 F0 melanoma xenograft model of C57B6J mice. C57B6J mice of 6 weeks age (body weight 18-22 g) were purchased from National Institute of Nutrition (NIN), Hyderabad (India). Animals study protocols were approved by Institutional Ethics Committee (IAEC). All the studies were performed in compliance with the Committee for the Purpose of Control and Supervision of Experiments on Animals (CPCSEA) guidelines and OECD guidelines. Animals were allowed free access to standard feed and provided charcoal filtered and UV exposed water ad libitum. The animals were maintained at a controlled temperature (24-26° C.), humidity (45-70%), and 12 h/12 h of light/dark cycle.
To induce the melanoma tumor formation, sub-confluent B16F0 cells were harvested by brief trypsinization and 1×10^6 cells were injected subcutaneously in 0.2 mL phosphate-buffered saline. Drug treatment was started after development of palpable tumors (3-5 days after implantation of the cells). Drugs were prepared in phosphate-buffered saline (10% DMSO, v/v) and either 75 mg/kg of DTIC or different doses of LI-51255 (10 or 20 mg/kg) was administered daily through intra-peritoneal route. Vehicle treated control animals received only 10% DMSO in phosphate buffered saline. After twelve days of treatment, the animals were sacrificed by CO2 inhalation and tumors were excised and weighed.

Row | Structure (SMILES) | minimum inhibitory concentration (MIC) PC3M (PC3M) | minimum inhibitory concentration (MIC) Jurkat (Jurkat) | minimum inhibitory concentration (MIC) HePG2 (HePG2) | IC50 values MCF-7 (MCF-7; Table 4) | % inhibition at 10 μg/ml (potato 5-lipoxygenase) | % inhibition at 25 μg/ml (potato 5-lipoxygenase) | Inhibition of cell proliferation B16 (IC50) (B16) | Inhibition of cell proliferation A549 (IC50) (A549) | Inhibition of cell proliferation A375 (IC50) (A375) | Inhibition of cell proliferation MCF-7 (IC50) (MCF-7; Table 2) | Inhibition of cell proliferation MDA-MB-231 (IC50) (MDA-MB-231; Table 2) | also measured
1 | COc1cc(C(=O)O[C@@H]2CC[C@@]3(C)C(CC[C@]4(C)C3C(=O)C=C3C5[C@@H](C)[C@H](C)CC[C@]5(C)CC[C@]34C)[C@@]2(C)C(=O)O)cc(O)c1O (stereo partly shown) [Analog 3] | 30 | 125 | 150 |  |  |  |  |  |  |  |  | cytotoxicity against PC3M (PC3M): significantly more potent
2 | C[C@H](N)C(=O)O[C@@H]1CC[C@@]2(C)C(CC[C@]3(C)C2C(=O)C=C2C4[C@@H](C)[C@H](C)CC[C@]4(C)CC[C@]23C)[C@@]1(C)C(=O)O (stereo partly shown) [Analog 11] | 30 | 50 | 100-150 |  |  |  |  |  |  |  |  | IC50 (MCF-7; Homo sapiens, MCF7, Table 4): 33.3 µg/mL (≈ 61.5 µM); IC50 (MDA-MB-231; Homo sapiens, MDA-MB-231, Table 4): 28.9 µg/mL (≈ 53.4 µM)
3 | CC(=O)OC1CC[C@@]2(C)C(CC[C@]3(C)C2C(=O)C=C2C4[C@@H](C)[C@H](C)CC[C@]4(C)CC[C@]23C)[C@@]1(C)C(N)=O (stereo partly shown) [Analog 19] | >150 | 10 | >150 | IC50 at 30.05 μg/ml |  |  |  |  |  |  |  | cytotoxicity against leukemia cells (Jurkat): highly potent selectively; Percentage Inhibition of cell proliferation MDA-MB-231 (MDA-MB-231; Table 4, 10 μg/ml): 38.72% at 10 μg/ml
4 | CC(=O)O[C@@H]1CC[C@@]2(C)C(CC[C@]3(C)C2C(=O)C=C2C4[C@@H](C)[C@H](C)CC[C@]4(C)CC[C@]23C)[C@@]1(C)C(=O)NN (stereo partly shown) [Analog 20] | 10 | 50 | 40 |  |  |  |  |  |  |  |  | inhibition at 10 µg/mL (MCF-7; Homo sapiens, MCF7, Table 4, 10 μg/ml, read-out: Percentage Inhibition of cell proliferation MCF-7): 44%; cytotoxicity against PC3M (PC3M): significantly more potent
5 | CC(=O)O[C@@H]1CC[C@@]2(C)C(CC[C@]3(C)C2C(=O)C=C2C4[C@@H](C)[C@H](C)CC[C@]4(C)CC[C@]23C)[C@@]1(C)C(=O)N(C)C (stereo partly shown) [Analog 31] |  |  |  |  | 18.57% | 36.73% |  |  |  |  |  | inhibition at 10 µg/mL (A549; Homo sapiens, A549, 10 ug/ml): 17%; inhibition at 10 µg/mL (MDA-MB-231; Homo sapiens, MDA-MB-231, Table 2, 10 ug/ml, read-out: Inhibition of cell proliferation MDA-MB-231, % at 10 ug/ml): 46%; inhibition at 10 µg/mL (MDA-MB-231; Homo sapiens, MDA-MB-231, Table 4, 10 μg/ml, read-out: Percentage Inhibition of cell proliferation MDA-MB-231): 46%; inhibition at 10 µg/mL (B16; Mus musculus, B16, 10 ug/ml): 10%
6 | CC(=O)O[C@@H]1CC[C@@]2(C)C(CC[C@]3(C)C2C(=O)C=C2C4[C@@H](C)[C@H](C)CC[C@]4(C)CC[C@]23C)[C@@]1(C)C(=O)NCCCCCCN (stereo partly shown) [Analog 33] |  |  |  |  | 24.66% | 52.98% | 9.1 µg/mL |  |  |  |  | Inhibition of cell proliferation A549, % at 10 ug/ml (A549; 10 ug/ml): 24% at 10; Inhibition of cell proliferation MCF-7, % at 10 ug/ml (MCF-7; Table 2, 10 ug/ml): 36% at 10; Percentage Inhibition of cell proliferation MCF-7 (MCF-7; Table 4, 10 μg/ml): 36% at 10 μg/ml
7 | CC(=O)O[C@@H]1CC[C@@]2(C)C(CC[C@]3(C)C2C(=O)C=C2C4[C@@H](C)[C@H](C)CC[C@]4(C)CC[C@]23C)[C@@]1(C)C(=O)NCCCCN (stereo partly shown) [Analog 34] |  |  |  | IC50 at 13.7 μg/ml | 16.31% | 29.40% | 3.84 µg/mL | 10.5 µg/mL | 4.12 µg/mL | 13.7 µg/mL | 6.38 µg/mL | IC50 values MDA-MB-231 (MDA-MB-231; Table 4): IC50 at 6.38 μg/ml
8 | CC(=O)O[C@@H]1CC[C@@]2(C)C(CC[C@]3(C)C2C(=O)C=C2C4[C@@H](C)[C@H](C)CC[C@]4(C)CC[C@]23C)[C@@]1(C)C(=O)NCCCCCCCN (stereo partly shown) [Analog 35] |  |  |  | IC50 at 9.7 μg/ml | 24.92% | 52.48% | 2.82 µg/mL | 5.86 µg/mL | 2.76 µg/mL | 9.7 µg/mL | 5.14 µg/mL | IC50 values MDA-MB-231 (MDA-MB-231; Table 4): IC50 at 5.14 μg/ml
9 | C[C@@H]1CC[C@]2(C)CC[C@]3(C)C(=CC(=O)C4[C@@]5(C)CC[C@@H](O)[C@](C)(C(=O)N6CCOCC6)C5CC[C@]43C)C2[C@H]1C (stereo partly shown) [Analog 36] |  |  |  | IC50 at 8.7 μg/ml | 17.83% | 34.40% | 2.44 µg/mL | 4.78 µg/mL | 2.75 µg/mL | 8.7 µg/mL | 3.4 µg/mL | IC50 values MDA-MB-231 (MDA-MB-231; Table 4): IC50 at 3.4 μg/ml
10 | CC(=O)O[C@@H]1CC[C@@]2(C)C(CC[C@]3(C)C2C(=O)C=C2C4[C@@H](C)[C@H](C)CC[C@]4(C)CC[C@]23C)[C@@]1(C)C(=O)NCCNC=O (stereo partly shown) [Analog 48] |  |  |  |  | 22.78% | 54.18% | 4.35 µg/mL | 6.83 µg/mL | 3.53 µg/mL | 12.5 µg/mL | 4.98 µg/mL | Percentage Inhibition of cell proliferation MDA-MB-231 (MDA-MB-231; Table 4, 10 μg/ml): 8.8% at 10 μg/ml
11 | CN(C)/N=N/c1[nH]cnc1C(N)=O [DTIC, Dacarbazine, reference compound] |  |  |  |  |  |  |  |  |  |  |  | % reduction of tumor burden (w.r.t control) [1]: 33.613%; Average weight of tumor [1]: 4.175 gm; % reduction of tumor burden (w.r.t control) ([1]; listed as Dacarbazine): 33.6%
